# Where a name gives a salt, the structure may show the parent alone. Read-outs that look alike come from different tables or passages of the source.
# Legend:
# bFGF = test system: bFGF; design: method as in S-inhibitor catalog; details: vendor brief description; ref S-inhibitor catalog; cited from earlier work
# [1] = test system: Toxoplasma gondii RH-2F tachyzoites; assay: microbe, parasite or virus in culture; details: 72 h
# VEGF-A = test system: VEGF-A; design: method as in S-inhibitor catalog; details: vendor brief description; ref S-inhibitor catalog; cited from earlier work
# p110α [2] = test system: p110α; design: method as in S-inhibitor catalog; details: vendor brief description; ref S-inhibitor catalog; cited from earlier work
# FAAH = test system: FAAH; design: method as in S-inhibitor catalog; details: vendor brief description; ref S-inhibitor catalog; cited from earlier work
# α7 nAChR = test system: α7 nAChR; design: method as in S-inhibitor catalog; details: in α7*-expressing SH-EP1 cells; vendor brief description; ref S-inhibitor catalog; read-out: EC50, α7 nAChR positive allosteric modulation; cited from earlier work
# HSP90 = target: HSP90; design: method as in S-inhibitor catalog; details: vendor brief description; ref S-inhibitor catalog; cited from earlier work
# Her-2 degradation = test system: Her-2 degradation; design: method as in S-inhibitor catalog; details: vendor brief description; ref S-inhibitor catalog; cited from earlier work
# muscarinic receptor = target: muscarinic receptor; design: method as in S-inhibitor catalog; details: vendor brief description; ref S-inhibitor catalog; read-out: Kb, muscarinic receptor antagonist; cited from earlier work
# [3] = target: HIV-1 gp120 / CD4 receptor; design: method as in S-inhibitor catalog; details: in virus; vendor brief description; ref S-inhibitor catalog; read-out: EC50, inhibition of binding of HIV-1 gp120 to CD4 receptor; cited from earlier work
# GPR40 = test system: GPR40; design: method as in S-inhibitor catalog; details: vendor brief description; ref S-inhibitor catalog; read-out: EC50, GPR40 agonist; cited from earlier work
# Bcr/Abl = test system: Bcr/Abl; design: method as in S-inhibitor catalog; details: vendor brief description; ref S-inhibitor catalog; cited from earlier work
# [4] = target: hydroxymethylglutaryl coenzyme A reductase (HMGCR); design: method as in S-inhibitor catalog; details: vendor brief description; ref S-inhibitor catalog; cited from earlier work
# ALK2 = test system: ALK2; design: method as in S-inhibitor catalog; details: vendor brief description; ref S-inhibitor catalog; cited from earlier work
# ALK3 = test system: ALK3; design: method as in S-inhibitor catalog; details: vendor brief description; ref S-inhibitor catalog; cited from earlier work
# Plk1 = test system: Plk1; design: method as in S-inhibitor catalog; details: vendor brief description; ref S-inhibitor catalog; cited from earlier work
# p110β [5] = target: p110β; design: method as in S-inhibitor catalog; details: vendor brief description; ref S-inhibitor catalog; cited from earlier work
# VEGFR3 = test system: VEGFR3; design: method as in S-inhibitor catalog; details: vendor brief description; ref S-inhibitor catalog; cited from earlier work
# VEGFR2 = test system: VEGFR2; design: method as in S-inhibitor catalog; details: vendor brief description; ref S-inhibitor catalog; cited from earlier work
# c-Kit = test system: c-Kit; design: method as in S-inhibitor catalog; details: vendor brief description; ref S-inhibitor catalog; cited from earlier work
# PDGFRβ = test system: PDGFRβ; design: method as in S-inhibitor catalog; details: vendor brief description; ref S-inhibitor catalog; cited from earlier work
# LXRα/SRC1 = test system: LXRα/SRC1; design: method as in S-inhibitor catalog; details: vendor brief description; ref S-inhibitor catalog; read-out: EC50, LXRα/SRC1 LiSA; cited from earlier work
# LXRα-GAL4 = test system: LXRα-GAL4; design: method as in S-inhibitor catalog; details: vendor brief description; ref S-inhibitor catalog; cited from earlier work
# MEK2 = test system: MEK2; design: method as in S-inhibitor catalog; details: vendor brief description; ref S-inhibitor catalog; cited from earlier work
# PKA = target: PKA; design: method as in S-inhibitor catalog; details: vendor brief description; ref S-inhibitor catalog; cited from earlier work
# MDA-MB-435 cell line = test system: MDA-MB-435 cell line; design: method as in S-inhibitor catalog; details: vendor brief description; ref S-inhibitor catalog; read-out: IC50, inhibition of growth of MDA-MB-435; cited from earlier work
# H14 cell line = test system: H14 cell line; design: method as in S-inhibitor catalog; details: vendor brief description; ref S-inhibitor catalog; read-out: IC50, inhibition of growth of H14; cited from earlier work
# HeLa cell line = test system: HeLa cell line; design: method as in S-inhibitor catalog; details: vendor brief description; ref S-inhibitor catalog; read-out: IC50, inhibition of growth of HeLa; cited from earlier work
# HL60 cell line = test system: HL60 cell line; design: method as in S-inhibitor catalog; details: vendor brief description; ref S-inhibitor catalog; read-out: IC50, inhibition of growth of HL60; cited from earlier work
# 5-HT1D = target: 5-HT1D; design: method as in S-inhibitor catalog; details: vendor brief description; ref S-inhibitor catalog; cited from earlier work
# [6] = test system: AVP-induced platelet aggregation; design: method as in S-inhibitor catalog; details: vendor brief description; ref S-inhibitor catalog; read-out: IC50, inhibition of AVP-induced platelet aggregation; cited from earlier work
# Syk = test system: Syk; design: method as in S-inhibitor catalog; details: vendor brief description; ref S-inhibitor catalog; cited from earlier work
# Akt2 = test system: Akt2; design: method as in S-inhibitor catalog; details: vendor brief description; ref S-inhibitor catalog; cited from earlier work
# p110α [7] = test system: p110α; design: method as in S-inhibitor; details: ref S-inhibitor; cited from earlier work
# p110δ = test system: p110δ; design: method as in S-inhibitor; details: ref S-inhibitor; cited from earlier work
# p110β [8] = test system: p110β; design: method as in S-inhibitor; details: ref S-inhibitor; cited from earlier work
# p110γ = test system: p110γ; design: method as in S-inhibitor; details: ref S-inhibitor; cited from earlier work
# mTORC2 = test system: mTORC2; design: method as in S-inhibitor catalog; details: vendor brief description; ref S-inhibitor catalog; cited from earlier work
# mTORC1 = test system: mTORC1; design: method as in S-inhibitor catalog; details: vendor brief description; ref S-inhibitor catalog; cited from earlier work
# [9] = target: Aβ40 production (γ-secretase); design: method as in S-inhibitor catalog; details: in human SH-SY5Y cells; vendor brief description; ref S-inhibitor catalog; read-out: IC50, reduction of Aβ40 production; cited from earlier work
# PI3K = test system: PI3K; design: method as in S-inhibitor catalog; details: vendor brief description; ref S-inhibitor catalog; cited from earlier work
# DNA-PK = test system: DNA-PK; design: method as in S-inhibitor catalog; details: vendor brief description; ref S-inhibitor catalog; cited from earlier work
# PDE4B = test system: PDE4B; design: method as in S-inhibitor catalog; details: vendor brief description; ref S-inhibitor catalog; cited from earlier work
# hERG K+ channel = details: cited from earlier work
# 5-HT Receptor = target: 5-HT Receptor; design: method as in S-inhibitor catalog; details: vendor brief description; ref S-inhibitor catalog; cited from earlier work
# [10] = read-out: Parasite inhibition (%) mean, preliminary screen of compound library, mean
compound,measurement,setting,value
COc1ccc(COc2cc3oc(=O)c4cc(C(C)O)ccc4c3cc2OC)cc1 (stereo not shown) [Palomid 529],IC50,bFGF,30 nM
same,inhibition of growth at 5 µM,[1]; [10],-14.6%
same,IC50,VEGF-A,10 nM
Nc1cc(C(F)(F)F)c(-c2cc(N3CCOCC3)nc(N3CCOCC3)n2)cn1 [BKM120 (NVP-BKM120)],inhibition of growth at 5 µM,[1]; [10],41.3%
NC(=O)c1cccc(-c2cccc(OC(=O)NC3CCCCC3)c2)c1 [URB597],inhibition of growth at 5 µM,[1]; [10],2.1%
same,IC50,FAAH,4.6 nM
COc1cc(OC)c(NC(=O)Nc2cc(C)on2)cc1Cl [PNU-120596],inhibition of growth at 5 µM,[1]; [10],-38.8%
same,EC50,α7 nAChR,216 nM
CC1(C)CC(=O)c2c(C(F)(F)F)nn(-c3ccc(C(N)=O)c(N[C@H]4CC[C@H](OC(=O)CN)CC4)c3)c2C1 [PF-04929113 (SNX-5422)],Kd,HSP90,41 nM
same,inhibition of growth at 5 µM,[1]; [10],4.6%
same,IC50,Her-2 degradation,37 nM
CC(C)N(CC[C@H](c1ccccc1)c1cc(CO)ccc1O)C(C)C [5-hydroxymethyl tolterodine (PNU 200577)],inhibition of growth at 5 µM,[1]; [10],-18.8%
same,Kb,muscarinic receptor,0.84 nM
COc1cc[nH]c2ncc(C(=O)C(=O)N3CCN(C(=O)c4ccccc4)C[C@H]3C)c1-2 [BMS-806 (BMS 378806)],EC50,[3],0.85 to 26.5 nM
same,inhibition of growth at 5 µM,[1]; [10],0.3%
Cc1cc(OCCCS(C)(=O)=O)cc(C)c1-c1cccc(COc2ccc3c(c2)OC[C@H]3CC(=O)O)c1 [TAK-875],inhibition of growth at 5 µM,[1]; [10],-10.4%
CCC[C@H](NC(=O)/C(C#N)=C/c1cccc(Br)n1)c1ccccc1 [WP1130],inhibition of growth at 5 µM,[1]; [10],1.7%
same,IC50,Bcr/Abl,1800 nM
CCC(C)(Oc1ccc(C2(c3ccc(OC(C)(CC)C(=O)O)cc3)CCCCC2)cc1)C(=O)O (stereo not shown) [Clinofibrate],IC50,[4],470000 nM
same,inhibition of growth at 5 µM,[1]; [10],0.1%
c1ccc2c(-c3cnn4cc(-c5ccc(N6CCNCC6)cc5)cnc34)ccnc2c1 [LDN193189],inhibition of growth at 5 µM,[1]; [10],21.7%
CC[C@@H]1C(=O)N(C)c2cnc(Nc3ccc(C(=O)N[C@H]4CC[C@H](N5CCN(CC6CC6)CC5)CC4)cc3OC)nc2N1C(C)C [BI6727 (Volasertib)],inhibition of growth at 5 µM,[1]; [10],0.8%
same,IC50,Plk1,0.87 nM
COc1ncc(-c2ccc3nccc(-c4ccnnc4)c3c2)cc1NS(=O)(=O)c1ccc(F)cc1F [GSK2126458],inhibition of growth at 5 µM,[1]; [10],21.3%
CNC(=O)c1cc(COc2nnc(Nc3ccc(Cl)cc3)c3ccoc23)ccn1 [Telatinib (BAY 57-9352)],IC50,VEGFR3,4 nM
same,inhibition of growth at 5 µM,[1]; [10],-15.6%
same,IC50,VEGFR2,6 nM
same,IC50,c-Kit,1 nM
same,IC50,PDGFRβ,15 nM
O=C(O)Cc1cccc(OCCCN(Cc2cccc(C(F)(F)F)c2Cl)CC(c2ccccc2)c2ccccc2)c1 [GW3965 HCl],EC50,LXRα/SRC1,125 nM
same,EC50,LXRα-GAL4,190 nM
same,inhibition of growth at 5 µM,[1]; [10],-20.1%
CC(=O)Nc1cccc(-n2c(=O)n(C3CC3)c(=O)c3c(Nc4ccc(I)cc4F)n(C)c(=O)c(C)c32)c1 [GSK1120212 (Trametinib)],inhibition of growth at 5 µM,[1]; [10],-8.7%
Cc1n[nH]c2ccc(-c3cncc(OC[C@@H](N)Cc4ccccc4)c3)cc12 [A-674563],Ki,PKA,16 nM
same,inhibition of growth at 5 µM,[1]; [10],67.7%
C[C@@H]1CC[C@@]2(OC1)O[C@H]1C[C@H]3[C@@H]4CC=C5C[C@H](O[C@@H]6O[C@@H](CO)[C@@H](O[C@@H]7O[C@@H](C)[C@H](O)[C@@H](O)[C@@H]7O)[C@H](O)[C@H]6O[C@@H]6O[C@@H](C)[C@H](O)[C@@H](O)[C@H]6O)CC[C@]5(C)[C@@H]4CC[C@]3(C)[C@@H]1[C@H]2C [Dioscin (Collettiside III)],IC50,MDA-MB-435 cell line,2600 nM
same,inhibition of growth at 5 µM,[1]; [10],4.8%
same,IC50,H14 cell line,800 nM
same,IC50,HeLa cell line,4500 nM
same,IC50,HL60 cell line,7500 nM
CC1(C)C(=O)N(CCN2CCC(C(=O)c3ccc(F)cc3)CC2)c2ccccc21 [LY310762],inhibition of growth at 5 µM,[1]; [10],1.5%
same,Ki,5-HT1D,~200 nM
Cc1ccccc1C(=O)Nc1ccc(C(=O)N2CCCC(O)c3cc(Cl)ccc32)c(C)c1 (stereo not shown) [Tolvaptan (OPC-41061)],inhibition of growth at 5 µM,[1]; [10],-4.3%
same,IC50,[6],1280 nM
COc1cc(Nc2ncc(F)c(Nc3ccc4c(n3)N(COP(=O)(O)O)C(=O)C(C)(C)O4)n2)cc(OC)c1OC [R788 (Fostamatinib)],IC50,Syk,[…]
same,inhibition of growth at 5 µM,[1]; [10],27.4%
NC1(Cc2ccc(Cl)cc2)CCN(c2ncnc3[nH]ccc23)CC1 [CCT128930],inhibition of growth at 5 µM,[1]; [10],-25.6%
Cc1ccccc1-n1c(Cn2ncc3c(N)ncnc32)nc2cccc(C)c2c1=O [PIK-293],IC50,p110α [7],100000 nM
same,inhibition of growth at 5 µM,"[1]; read-out: Parasite inhibition (%) mean, preliminary screen, mean",1.1%
same,IC50,p110δ,240 nM
same,IC50,p110β [8],25000 nM
same,IC50,p110γ,10000 nM
COc1cccc2cc(-c3nc([C@H]4CC[C@H](C(=O)O)CC4)n4ncnc(N)c34)[nH]c12 [OSI-027],inhibition of growth at 5 µM,[1]; [10],31%
same,IC50,mTORC2,65 nM
same,IC50,mTORC1,22 nM
O=C(O)CC[C@H]1CC[C@@](c2cc(F)ccc2F)(S(=O)(=O)c2ccc(Cl)cc2)CC1 [MK-0752],inhibition of growth at 5 µM,[1]; [10],7.5%
same,IC50,[9],5 nM
O=c1cc(N2CCOCC2)oc2c(-c3cccc4c3sc3ccccc34)cccc12 [NU7441 (KU-57788)],inhibition of growth at 5 µM,[1]; [10],21.5%
same,IC50,PI3K,5000 nM
same,IC50,DNA-PK,14 nM
COc1cccc(Nc2c(C(N)=O)cnc3c(C)cc(S(=O)(=O)c4cccc(C(=O)N(C)C)c4)cc23)c1 [GSK256066],inhibition of growth at 5 µM,[1]; [10],18.7%
same,IC50,PDE4B,0.0032 nM
CC1=NN(c2ccc(C)c(C)c2)C(=O)/C1=N/Nc1cccc(-c2cccc(C(=O)O)c2)c1O [Eltrombopag (SB-497115-GR)],inhibition of growth at 5 µM,[1]; [10],0.7%
same,IC50,hERG K+ channel,690 nM
COc1ccccc1N1CCN(CCN(C(=O)C2CCCCC2)c2ccccn2)CC1 [WAY-100635 HCl],inhibition of growth at 5 µM,[1]; [10],-0.7%
same,IC50,5-HT Receptor,0.95 nM

# From article PMC7216583 (Parasites & Vectors, 2020)
